The subject of one assay is A549. The assay can be described thus: Cytotoxicity against human A549 cells assessed as growth inhibition incubated for 72 hrs by MTT assay. The assay is classed as functional, cell-based. Particulars: A549, 72 h. (In general: Tetrazolium dyes change colour on reduction, which living cells bring about.)
In the next assay the test system is SMMC-7721. The assay can be described thus: Cytotoxicity against human SMMC7721 cells assessed as growth inhibition incubated for 72 hrs by MTT assay. The assay is classed as functional, cell-based. Particulars: SMMC-7721, 72 h.
The next assay relates to HCT-116. The assay can be described thus: Cytotoxicity against human HCT116 cells assessed as growth inhibition incubated for 72 hrs by MTT assay. The following applies: HCT-116, 72 h. In kind it is functional, cell-based.
The test system of assay [1] is RAW264.7. Briefly: Cytotoxicity against LPS-induced mouse RAW264.7 cells incubated for 18 hrs by MTT assay. In kind it is cell-based. The following applies: RAW264.7, 18 h.
The nature of assay [2]: Cytotoxicity against human QGY7701 cells assessed as growth inhibition incubated for 72 hrs by MTT assay. The assay is classed as functional, cell-based. Particulars: QGY7701, 72 h.
For the next assay, the system named is HL-60. Briefly: Cytotoxicity against human HL60 cells assessed as growth inhibition incubated for 72 hrs by CCK8 assay. The assay is classed as functional, cell-based. Particulars: HL-60, 72 h.
For assay [3], the system named is RAW264.7. Briefly: Anti-inflammatory activity against LPS-induced mouse RAW264.7 cells assessed as inhibition of nitric oxide production incubated for 20 mins before LPS induction by Griess method. In kind it is functional, cell-based. In general terms: The Griess reaction detects nitrite, a stable product of nitric oxide.
The test system of the next assay is MCF7. Briefly: Cytotoxicity against human MCF7 cells assessed as growth inhibition incubated for 72 hrs by MTT assay. Particulars: MCF7, 72 h. The assay is classed as functional, cell-based.

As to `C=C(C)CC[C@H](OC(C)=O)[C@@]1(C)C[C@@H]2OC(=O)C(=C)[C@@H]2CC1=O`, the IC50 – broadly, the point on the concentration scale where inhibition reaches its midpoint – was found to be 11 µM in the assay with A549; 24.8 µM in the assay with SMMC-7721; 8.53 µM in the assay on HCT-116; 14.4 µM in the assay with RAW264.7 [1]; 4.88 µM in assay [2]; 7.31 µM in the assay on HL-60. For the same molecule, the figures for the IC50 with RAW264.7 [3] and with MCF7 were 4.63 µM and 12 µM, respectively.

As for `C=C(C)CC[C@H](O)[C@@]1(C)C[C@@H]2OC(=O)C(=C)[C@@H]2CC1=O`, the IC50 in the assay with A549 worked out at 17.4 µM; in the assay on SMMC-7721, 53.1 µM; in the assay with HCT-116, 19.2 µM; in the assay on RAW264.7 [1], 26.6 µM; in assay [2], 8.7 µM; in the assay with HL-60, 14.8 µM. In addition, the IC50 worked out at 6.12 µM in the assay on RAW264.7 [3] and 18.9 µM with MCF7.

For `C=C1C(=O)O[C@H]2C[C@@]3(C)C(=O)[C@@H]([C@@H]12)[C@](O)(CC)C[C@@H]3OCOC`, the IC50 in the assay on A549 came out at 17 µM; in the assay with SMMC-7721 it was 31.7 µM; with HCT-116, 14.5 µM; in the assay with RAW264.7 [1], 20.1 µM; in assay [2], 7.75 µM; in the assay on HL-60, 9.37 µM. Further, the IC50 with RAW264.7 [3] stood at 6.7 µM; in the assay with MCF7, 16.4 µM.

As for `C=C1C(=O)O[C@H]2C[C@](C)(/C=C/C(=O)CC)C(=O)C[C@@H]12`, the IC50 in the assay on A549 came out at 10.5 µM; with SMMC-7721, 25.4 µM; in the assay on HCT-116, 5.8 µM; in the assay on RAW264.7 [1], 9.94 µM; in assay [2] it was 6.16 µM; in the assay with HL-60, 1.02 µM. Moreover, the IC50 in the assay on RAW264.7 [3] stood at 4.72 µM; in the assay with MCF7 it was 9.03 µM.

Turning to `C=C1C(=O)O[C@H]2C[C@](C)(C(=O)CC(=O)CC)C(=O)C[C@@H]12`, the IC50 came to 21.9 µM in the assay with A549; 48.6 µM in the assay on SMMC-7721; 21 µM in the assay with HCT-116; 47.2 µM in the assay with RAW264.7 [1]; 13.7 µM in assay [2]; 16.4 µM in the assay on HL-60. In addition, the IC50 with RAW264.7 [3] was 6.99 µM; in the assay on MCF7, 27.2 µM.

Turning to `C=C1C(=O)O[C@H]2C[C@]3(C)C(=O)C=C(CC)OC3=C[C@@H]12`, the IC50 was determined as 9.58 µM in the assay with A549; 19.6 µM in the assay on SMMC-7721; 9.37 µM with HCT-116; 10.3 µM in the assay on RAW264.7 [1]; 3.55 µM in assay [2]; 5.06 µM in the assay on HL-60. The IC50 amounted to 3.44 µM with RAW264.7 [3] and 7.86 µM in the assay with MCF7.

On to `C=C1C(=O)O[C@H]2C[C@]3(C)C(=O)C=C(CC)[C@@H](C3=O)[C@@H]12`, for which the IC50 in the assay on A549 was determined as 9.65 µM; in the assay with SMMC-7721 it was 27.2 µM; in the assay with HCT-116 it was 9.94 µM; in the assay on RAW264.7 [1], 12.2 µM; in assay [2] it was 5.55 µM; in the assay on HL-60, 3.8 µM. Moreover, the IC50 is 4.26 µM with RAW264.7 [3] and 11.6 µM with MCF7.

Consider `C=C1C(=O)O[C@H]2C[C@@H](C)C(=O)C[C@@H]12`, for which the IC50 in the assay with A549 is 14.9 µM; with SMMC-7721, 42.6 µM; in the assay with HCT-116, 18.3 µM; with RAW264.7 [1] it was 30.6 µM; in assay [2], 8.58 µM; in the assay on HL-60, 12.6 µM. The IC50 with RAW264.7 [3] was 5.82 µM; with MCF7 it was 15.7 µM.

Turning to `COc1cccc2c1C(=O)c1c(O)c3c(c(O)c1C2=O)C[C@@](O)(C(=O)CO)C[C@@H]3O[C@H]1C[C@H](N)[C@H](O)[C@H](C)O1` [DOXORUBICIN], the values for the 50% inhibitory concentration (IC50) in the assay on SMMC-7721 and in the assay with HCT-116 were 0.57 µM and 0.18 µM, respectively.

For the molecule `N=C(N)NN` [PIMAGEDINE], in the assay on RAW264.7 [3], the IC50 came to 11.9 µM.

For the origin of these results see ChEMBL document CHEMBL3621124, “Synthesis, cytotoxicity and inhibition of NO production of ivangustin enantiomer analogues” (Eur J Med Chem, 2015).
